System: 786-O tumor (human renal clear cell adenocarcinoma cells)
Assay: Competitive inhibition assay in 786-O mouse model
Type: in vivo, NOD-SCID mice
Details: cold medicament 40 times the mass of hot medicament, 30 minutes before; scan 1 hour
Source text: The experimental 786-O animal model was provided by Biaodu Baiao Biotechnology (Shanghai) Co., Ltd. The model was a 786-O tumor subcutaneous heterotopic transplant tumor model established based on NOD-SCID mice. This model was a mouse model constructed for human renal clear cell adenocarcinoma cells. Two animal models were randomly selected and injected with cold medicament NYM0005 through tail vein. The injection dose was 40 times the mass of the injected hot medicament (^68Ga-NYM0005). The order of administration was as follow: injecting the hot medicament ^68Ga-NYM0005 30 minutes after the administration of the cold medicament. After pre-anesthesia with an appropriate concentration of isoflurane/oxygen mixed gas prior to scanning, the animals were placed in a MicroPET/CT imaging cabin (SNPC-303 SuperNova, Pingsheng Medical Technology (Kunshan) Co., Ltd.), and anesthesia was maintained with isoflurane/air mixed gas. A MicroPET/CT scan was performed 1 hour after the administration of the hot medicament. The scanned images were obtained after reconstruction by means of the device software, and the scanned images were analyzed using PMOD software.

Structure (SMILES): NS(=O)(=O)c1nnc(NC(=O)CCCc2cn(CCCCC(=O)N[C@@H](CC(=O)O)C(=O)NCCCCNC(=O)CN3CCN(CC(=O)O)CCN(CC(=O)O)CC3)nn2)s1 [NYM005]
- blocking of 68Ga-NYM005 uptake of the tumor by cold medicament: significantly block

Source: patent publication US12564650B2, “Carbonic anhydrase IX-targeting radioactive diagnostic and therapeutic medicament and method for preparing same” (NORROY BIOSCIENCE CO., LTD., priority 2022, dated 2026)
